Patent US8927300B2, “Method and compositions for the detection of protein glycosylation” (California Institute of Technology, priority 2003, dated 2015)
Positions count from the first letter of the chain named. “Also recorded” adds a separate entry of the source.

Key:
GalT = biological target: T1, GalT (Bos taurus, UniProt P08037); conditions: relative to Gal; cited from earlier work
T1 sequence (P08037 1-402): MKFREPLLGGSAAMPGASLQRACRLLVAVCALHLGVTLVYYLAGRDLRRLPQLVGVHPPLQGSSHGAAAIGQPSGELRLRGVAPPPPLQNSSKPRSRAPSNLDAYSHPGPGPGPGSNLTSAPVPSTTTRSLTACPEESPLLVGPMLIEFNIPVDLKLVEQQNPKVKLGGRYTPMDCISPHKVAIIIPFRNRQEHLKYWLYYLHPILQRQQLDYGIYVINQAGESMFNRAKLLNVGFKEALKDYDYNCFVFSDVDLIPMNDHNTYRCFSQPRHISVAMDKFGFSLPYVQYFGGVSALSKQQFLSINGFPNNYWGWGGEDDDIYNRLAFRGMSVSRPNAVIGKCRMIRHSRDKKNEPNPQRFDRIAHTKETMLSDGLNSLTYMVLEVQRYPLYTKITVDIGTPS

Y289L GalT = biological target: T2, Y289L GalT (Bos taurus, UniProt P08037, Y289L); assay: Transfer of keto-sugar from labeling agent 1 to O-GlcNAc peptide by Y289L mutant GalT, LC-MS; type: biochemical; conditions: peptide TAPTS(O-GlcNAc)TIAPG, 6 h at 4° C., diammonium salt
T2 construct: made in house
T2 sequence (P08037 1-402 Y289L): T1 sequence (P08037 1-402) with Y289L
Description: The peptide TAPTS(O-GlcNAc)TIAPG (SEQ ID NO: 1) (10 μM) was dissolved in 25 mM MOPS buffer, pH 6.7 containing 5 mM MnCl2 and 8 μM reference peptide (ThermoFinnigan, San Jose, Calif.). Labeling agent 1 and mutant Y289L GalT were added to final concentrations of 1 mM and 100 ng/μL, respectively. Prior to enzyme addition, an aliquot of the—reaction was removed as an initial time point for LC-MS analysis. Reactions were incubated at 4° C. for 6 h, after which an aliquot of the reaction mixture was removed for product analysis by LC-MS. The remainder of the reaction was diluted 5-fold into PBS (final concentration: 10.1 mM Na2HPO4, 1.76 mM KH2HPO4, […], 2.7 mM KCl, pH 6.7), and N-(aminooxyacetyl)-N′-(D-biotinoyl) hydrazine (Molecular Probes, Eugene, Oreg.) was added to a final concentration of 12 mM. After 8 h at 25° C., the extent of biotin-oxime product was measured by LC-MS. […] Labeling reactions with wild-type GalT were performed identically, with the exception that reactions were incubated at 37° C. for 12 h. […]
Base peak chromatograms are shown before and 6 h after the addition of ketone analogue 1 and Y289L GalT. […] For reaction with detection agent aminooxy biotin, formation of the oxime product was monitored using an extracted ion chromatogram within the mass range 1319.0-1321.0 m/z and 1633.0-1635.5 m/z, which was generated post-acquisition via the Xcalibur™ software. […]

[1] = test system: O-GlcNAc pendant moiety on α-crystallin; assay: Western / lectin blotting of α-crystallin with existing O-GlcNAc detection reagents; type: binding, bovine; conditions: blot, chemiluminescence, even when 10 μg of α-crystallin was used
Description: α-Crystallin, and appropriate positive and negative controls were resolved by 15% SDS-PAGE. All Western blotting steps were performed at RT unless otherwise noted. […] RL-2 antibody, at a concentration of 1:2000, was subsequently added in blocking buffer and blots were incubated for 1.5-2 h. Blots were then rinsed with hsTBST and washed 6×5 min. Secondary goat anti-mouse IgG antibody was applied at a concentration of 1:10,000 in hsTBS-T containing 1% BSA. After 1 h, blots were rinsed and washed as described before chemiluminescence detection on film (FIG. 11A). Western blotting with the CTD110.6 antibody was performed according to manufacturer's recommendations. Briefly, α-crystallin and controls were transferred to PVDF and washed 2×15 min with TBS-0.1% tween-20 (TBST). Blots were blocked in TBST containing 3% BSA for 1 h, rinsed 2× with TBST, and probed with CTD110.6 (1:2500) in blocking buffer for 1 h. Blots were then rinsed 2× with TBST and washed 2×5 min. Secondary goat anti-mouse IgM antibody was applied at a concentration of 1:10,000 in blocking buffer for 1 h, and blots were subsequently rinsed with TBST and washed 5×5 min before chemiluminescence detection on film (FIG. 11B).
WGA western blotting was performed essentially as described (25, 27). Briefly, α-crystallin and controls were resolved by 15% SDS-PAGE and electrophoretically transferred to nitrocellulose. […]

## OCC1OC(O)CC(O)[C@H]1O (stereo partly drawn) [2-deoxy-Gal]
GalT
  rate of transfer by GalT: rates comparable to Gal

## Uridine 5′-diphospho-2-acetonyl-2deoxy-a-D-galactopyranose diammonium salt [Labeling agent 1]
Y289L GalT
  conversion of peptide to ketone-labeled product: Complete conversion

B1: WGA: wheat-germ agglutinin lectin, existing method to detect GlcNAc (protein)
chain: QRCGEQGSNMECPNNLCCSQYGYCGMGGDYCGKGCQNGACWTSKRCGSQAGGATCTNNQCCSQYGYCGFGAEYCGAGCQGGPCRADIKCGSQAGGKLCPNNLCCSQWGFCGLGSEFCGGGCQSGACSTDKPCGKDAGGRVCTNNYCCSKWGSCGIGPGYCGAGCQSGGCDG
[1]
  detection of O-GlcNAc on α-crystallin: failed to detect; also recorded: could not detect
